According to the supplement of paper PMC4858399:
Where a name gives a salt, the structure may show the parent alone.

Assays:
Conditions in all cases: exposure time 48 h
[1] = tested on: Caenorhabditis elegans N2; test: AC50 for larval growth inhibition (Hill fit); higher = less potent
Procedure, shortened: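 Synchronised C. elegans N2 L1 larvae, 50 per well in 96-well plates, were grown at 20°C for 48 h in K-medium with killed OP50, 1% DMSO and 0.5–200 µM chemical. Worm size was read on a COPAS Biosort as extinction, log-transformed and averaged per well, and only wells holding at least 10 worms were kept. AC50 was obtained by a constrained Hill fit using weighted genetic-algorithm regression, with out-of-range values censored.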

[2] = tested on: Caenorhabditis elegans N2; test: mean nematode size ln(EXT) after 48 h, plate-adjusted (DMSO control set to 6) (ln(EXT), control-adjusted); higher = larger nematodes / less growth inhibition
Procedure, shortened: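 A growth model removed debris from Biosort extinction readings taken on each worm. These worms were synchronised C. elegans N2 L1 larvae, 50 per well in 4–6 wells per treatment, grown for 48 h at 20°C in K-medium with killed OP50, 1% DMSO and 0.5–200 µM chemical. Readings were natural-logged and averaged by well to give mean size. On each plate, the vehicle control mean was subtracted and 6 was added.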

[3] = tested on: Caenorhabditis elegans N2; test: lowest effective concentration for larval growth inhibition (size below effect threshold); higher = less potent
Procedure, shortened: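 Chemical exposure ran for 48 h at 20°C: 50 C. elegans N2 L1 larvae per 96-well in K-medium with killed bacteria, 1% DMSO and 0.5, 1, 5, 10, 50, 100 or 200 µM chemical. Extinction of each worm, read as size on the Biosort, was log-transformed and averaged by well. The lowest effective concentration is the first dose whose plate-adjusted mean size is below a fixed value and remains so at all higher doses; the value is 5.665.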

| Compound | AC50 for larval growth inhibition [1] | mean nematode size ln(EXT) (ln) ([2]; 0.5 µM) | mean nematode size ln(EXT) (ln) ([2]; 1 µM) | mean nematode size ln(EXT) (ln) ([2]; 5 µM) | mean nematode size ln(EXT) (ln) ([2]; 10 µM) | mean nematode size ln(EXT) (ln) ([2]; 50 µM) | mean nematode size ln(EXT) (ln) ([2]; 100 µM) | mean nematode size ln(EXT) (ln) ([2]; 200 µM) | lowest effective concentration [3] |
| --- | --- | --- | --- | --- | --- | --- | --- | --- | --- |
| CCC(C)(C)C(=O)O[C@H]1C[C@@H](C)C=C2C=C[C@H](C)[C@H](CC[C@@H]3C[C@@H](O)CC(=O)O3)[C@H]21 [Simvastatin] | > 200 µM | 5.79 | 5.93 | 6 | 5.84 | 5.7 | 5.39 | 4.67 | 100 µM |
| CCCCCCCCn1sccc1=O [Octhilinone] | 34.9 µM | 5.47 | 5.54 | 5.56 | 5.58 | 4.2 | 3.68 | 3.36 | ≤ 0.5 µM |
| ClC1=C(Cl)C2(Cl)C3C(Cl)C=CC3C1(Cl)C2(Cl)Cl (stereo not drawn) [Heptachlor] | 6.11 µM | 5.7 | 5.98 | 5.24 | 4.13 | 4.03 | 3.97 | 3.44 | 5 µM |
| ClC(Cl)=C(c1ccc(Cl)cc1)c1ccc(Cl)cc1 [p,p'-DDE] | 2.64 µM | 5.79 | 5.71 | 4.36 | 4.21 | 3.94 | 3.93 | 3.67 | 5 µM |
| CCN(CC)C(=O)c1cc(S(=O)(=O)Cc2ccccc2)c(N2CCC(c3ccccc3)CC2)cc1N(CC)CCN(C)C | 72.6 µM | 5.74 | 5.7 | 5.67 | 5.57 | 4.82 | 4.3 | 3.47 | 10 µM |
| CCOS(=O)(=O)OCC [Diethyl sulfate] | 55 µM | 5.87 | 5.85 | 5.83 | 5.88 | 5.88 | 4.98 | 5.42 | 100 µM |
| CNS(=O)(=O)c1cc(C(=O)N2CCC(CCN3C4CCC3CC(n3c(C)nc5ccccc53)C4)(c3cccc(F)c3)CC2)c(Cl)cc1F (stereo not drawn) | > 200 µM | 5.68 | 5.79 | 5.77 | 5.78 | 5.62 | 5.38 | 5.41 | 50 µM |
| CSC1=N[C@@](C)(c2ccccc2)C(=O)N1Nc1ccccc1 [Fenamidone] | 105 µM | 5.9 | 5.9 | 5.86 | 5.96 | 6.02 | 5.83 | 5.41 | 200 µM |
| CC(Cc1ccc(OCC(=O)O)cc1)NCC(O)c1csc(C(F)(F)F)n1 (stereo not drawn) | > 200 µM | 5.86 | 5.88 | 5.84 | 6.03 | 5.84 | 5.89 | 5.4 | 200 µM |
| Oc1c(Cl)cc(Cl)cc1Cl [2,4,6-Trichlorophenol] | > 200 µM | 5.87 | 5.85 | 5.9 | 5.83 | 5.82 | 5.87 | 5.66 | 200 µM |
| Oc1cc(Cl)ccc1Oc1ccc(Cl)cc1Cl [Triclosan] | 49.9 µM | 5.89 | 5.86 | 5.85 | 5.64 | 4.79 | 4.27 | 4 | 10 µM |
| CO/N=C(/C(=O)OC)c1ccccc1CO/N=C(\C)c1cccc(C(F)(F)F)c1 [Trifloxystrobin] | 90.8 µM | 5.88 | 5.87 | 5.71 | 5.82 | 5.92 | 4.16 | 3.43 | 100 µM |
| CNCc1ccc(NC(=O)c2c[nH]c3c2C(=O)CCC3)cc1 | > 200 µM | 5.9 | 6.14 | 6.21 | 6.19 | 6.15 | 6.09 | 5.65 | 200 µM |
| C=C(C)CN(CC)c1c([N+](=O)[O-])cc(C(F)(F)F)cc1[N+](=O)[O-] [Ethalfluralin] | 141 µM | 5.89 | 6.05 | 5.94 | 5.8 | 6.1 | 5.98 | 4.85 | 200 µM |
| ClC1=C(Cl)[C@]2(Cl)[C@@H]3[C@@H](Cl)[C@H]4O[C@H]4[C@@H]3[C@@]1(Cl)C2(Cl)Cl (single isomer, unassigned; isomer b) [Heptachlor epoxide, isomer B] | 7.71 µM | 5.72 | 5.69 | 5.48 | 5.44 | 5.2 | 5.14 | 5.11 | 5 µM |
| O=C(O)COc1nc(Cl)c(Cl)cc1Cl [Triclopyr] | 156 µM | 6.07 | 6.1 | 6.13 | 6.08 | 5.61 | 5.48 | 4.06 | 50 µM |
| CC(=O)[C@H]1CC[C@H]2[C@@H]3CCC4=CC(=O)CC[C@]4(C)[C@H]3CC[C@]12C [Progesterone] | > 200 µM | 5.84 | 5.84 | 5.86 | 5.9 | 5.72 | 5.95 | 5.58 | 200 µM |
| CCCCOC(=O)CCCCCCCCC(=O)OCCCC [Dibutyl sebacate] | 27 µM | 5.85 | 5.87 | 5.86 | 5.68 | 5.05 | 5.15 | 4.79 | 50 µM |
| Cc1nc(-c2ccc3c(c2)CCN(CCC2CCC(NC(=O)/C=C/c4ccc(F)cc4)CC2)CC3)no1 (stereo not drawn) | > 200 µM | 5.87 | 5.83 | 5.82 | 5.86 | 5.74 | 5.6 | 5.59 | 100 µM |
| COP(=O)(OC)OC(Br)C(Cl)(Cl)Br (stereo not drawn) [Naled] | 95.8 µM | 5.83 | 5.69 | 5.51 | 5.53 | 4.87 | 4.66 | 3.88 | 5 µM |
| N#CC(Br)(Br)C(N)=O [2,2-Dibromo-3-nitrilopropionamide] | > 200 µM | 6.09 | 6.03 | 6.04 | 6.07 | 5.96 | 5.94 | 5.57 | 200 µM |

| Compound | AC50 for larval growth inhibition [1] | mean nematode size ln(EXT) (ln) ([2]; 0.5 µM) | mean nematode size ln(EXT) (ln) ([2]; 1 µM) | mean nematode size ln(EXT) (ln) ([2]; 5 µM) | mean nematode size ln(EXT) (ln) ([2]; 10 µM) | mean nematode size ln(EXT) (ln) ([2]; 50 µM) | mean nematode size ln(EXT) (ln) ([2]; 100 µM) | mean nematode size ln(EXT) (ln) ([2]; 200 µM) | lowest effective concentration [3] |
| --- | --- | --- | --- | --- | --- | --- | --- | --- | --- |
| CCC(C)Nc1c([N+](=O)[O-])cc(C(C)(C)C)cc1[N+](=O)[O-] (stereo not drawn) [Butralin] | 48.9 µM | 5.81 | 5.77 | 5.75 | 5.8 | 4.89 | 4.04 | 4.68 | 50 µM |
| O=[N+]([O-])c1ccc(Oc2ccc(Cl)cc2Cl)cc1 [2,4-dichloro-1-(4-nitrophenoxy)benzene] | 5.16 µM | 5.88 | 5.74 | 5.03 | 3.93 | 3.8 | 3.76 | 4.04 | 5 µM |
| O=C(Nc1ccc([N+](=O)[O-])cc1Cl)c1cc(Cl)ccc1O [Niclosamide] | 98.6 µM | 5.85 | 5.9 | 5.86 | 6.1 | 6.02 | 5.74 | 5.59 | 200 µM |
| CC(C)(C)[C@H](O)[C@H](Cc1ccc(Cl)cc1)n1cncn1 (racemic) [Paclobutrazol] | > 200 µM | 5.57 | 5.77 | 5.8 | 5.97 | 5.33 | 5.58 | 4.63 | 50 µM |
| O=C(O)CCCCC(=O)O [Adipic acid] | > 200 µM | 5.82 | 5.73 | 5.75 | 5.76 | 5.76 | 5.74 | 5.5 | 200 µM |
| CC(C)(C)c1cc(O)c(C(C)(C)C)cc1O [1,4-Benzenediol, 2,5-bis(1,1-dimethylethyl)-] | 113 µM | 5.85 | 5.93 | 5.73 | 5.79 | 5.7 | 4.85 | 3.48 | 100 µM |
| O=c1c(-c2ccc(O)cc2)coc2cc(O)cc(O)c12 [Genistein] | > 200 µM | 5.88 | 5.89 | 5.92 | 5.85 | 5.89 | 5.89 | 5.53 | 200 µM |
| CCOC(=O)C(O)(c1ccc(Cl)cc1)c1ccc(Cl)cc1 [Chlorobenzilate] | 39.4 µM | 6.05 | 5.97 | 5.87 | 5.64 | 4.21 | 4.08 | 3.11 | 10 µM |
| CCCOC(=O)c1ccc(C(=O)OCCC)nc1 [2,5-Pyridinedicarboxylic acid, dipropyl ester] | > 200 µM | 5.88 | 5.95 | 5.98 | 5.99 | 5.93 | 5.85 | 5.38 | 200 µM |
| CCC(C)(C)c1ccc(O)cc1 [4-(2-methylbutan-2-yl)phenol] | > 200 µM | 5.8 | 5.81 | 5.74 | 5.76 | 5.75 | 5.92 | 4.97 | 200 µM |
| Cc1ccc(-c2c(Cl)nc(C#N)n2S(=O)(=O)N(C)C)cc1 [Cyazofamid] | 60.5 µM | 5.91 | 5.91 | 5.88 | 6.02 | 5.84 | 5.29 | 4.91 | 100 µM |
| CC(C)(C)c1ccc(CSc2cnn(C(C)(C)C)c(=O)c2Cl)cc1 [Pyridaben] | < 0.5 µM | 4.73 | 4.44 | 4.31 | 4.22 | 4.14 | 3.92 | 3.87 | ≤ 0.5 µM |
| CN1CCN(Cc2cc(-c3ccc4[nH]c(=O)oc4c3)co2)[C@@H](c2ccc(F)cc2)C1 | 114 µM | 5.7 | 5.65 | 5.75 | 5.61 | 5.3 | 4.92 | 3.58 | 10 µM |
| CC(C)(C)OOC(C)(C)CCC(C)(C)OOC(C)(C)C [2,5-Dimethyl-2,5-bis(tert-butylperoxy)hexane] | 185 µM | 5.81 | 5.83 | 5.81 | 5.79 | 5.78 | 5.79 | 4.23 | 200 µM |
| CC[C@H](C)C1O[C@]2(C=C[C@@H]1C)C[C@@H]1C[C@@H](C/C=C(\C)[C@@H](O[C@H]3C[C@H](OC)[C@@H](O[C@H]4C[C@H](OC)[C@H](NC)[C@H](C)O4)[C@H](C)O3)[C@@H](C)/C=C/C=C3\CO[C@@H]4[C@H](O)C(C)=C[C@@H](C(=O)O1)[C@]34O)O2 (stereo partly drawn) [Emamectin benzoate] | < 0.5 µM | 3.52 | 3.7 | 3.74 | 3.6 | 3.65 | 3.54 | 4.24 | ≤ 0.5 µM |
| CCC/C(=N\OCC)C1=C(O)CC(CC(C)SCC)CC1=O (stereo not drawn) [Sethoxydim] | 149 µM | 6.01 | 6.16 | 6.06 | 6 | 5.76 | 5.97 | 3.35 | 200 µM |
| CC[C@H]1CC[C@H](NCc2cc3c(cc2OC)[C@H]2C[C@H]2C(=O)N3C)[C@H](c2ccccc2)N1 | > 200 µM | 5.85 | 5.81 | 5.87 | 5.86 | 5.77 | 5.85 | 5.48 | 200 µM |
| Cc1nccn1-c1ccc(Sc2cccc(C3(C(N)=O)CCOCC3)c2)cc1 | > 200 µM | 5.74 | 6.03 | 5.84 | 5.88 | 5.86 | 5.81 | 5.48 | 200 µM |
| Cc1nn(-c2cc(NS(C)(=O)=O)c(Cl)cc2Cl)c(=O)n1C(F)F [Sulfentrazone] | 108 µM | 5.85 | 5.87 | 5.92 | 5.96 | 6.05 | 5.9 | 5.5 | 200 µM |
| CCCCCCC(CCCCCCCCCCC(=O)OCC(COC(C)=O)OC(C)=O)OC(C)=O (stereo not drawn) | > 200 µM | 5.48 | 5.6 | 5.59 | 5.69 | 5.64 | 5.58 | 5.53 | 50 µM |
| C=CC(=O)OCCCCCC(C)C [Isooctyl acrylate] | > 200 µM | 5.42 | 5.47 | 5.59 | 5.64 | 5.7 | 5.68 | 5.52 | 200 µM |
